Like-named read-outs stand apart in the source and are kept apart here.
Key:
[1] = system: HER-2 receptor (Hsp90 client) in MCF-7 cells; assay: HER-2 degradation assay (MCF-7 cells, 16 h, phycoerythrin-labeled antibody and flow cytometry); type: cell-based, human
[2] = system: MCF-7 breast cancer cells; assay: MTS cell growth inhibition assay; type: cell-based, human; settings: MCF-7 cells, 5 days; SEM 9-21% of the mean
[3] = system: Hsp90 clients in N87 stomach cancer xenograft tumors; assay: Pharmacodynamic effect in N87 xenograft model; type: in vivo, mice
Description: The pharmacodynamic effect of amine 126 was examined in a N87 xenograft model (FIG. 1b), N87 being a stomach cancer cell line expressing high HER-2 levels. Mice were administered 126.H3PO4 orally at two different regimens (2×100 or 2×200 mg/kg/day) for three days, and were sacrificed 24 h after the last dosing.

[4] = system: N87 xenograft model of human stomach cancer; settings: oral 200 mg/kg/day, once daily, 5 days/week
[5] = Pharmacokinetics in Balb/C mice (IV 10 mg/kg, PO 100 mg/kg)
[6] = Solubility in simulated gastric fluid, simulated intestinal fluid and serum; type: physicochemical
[7] = mouse, in vivo, po, 100 mg/kg
[8] = in vivo; settings: mouse, po, 100 mg/kg
[9] = system: MCF-7 xenograft tumors; settings: cited from earlier work
[10] = Water solubility
[11] = oral 2×100 mg/kg/day for three days

COc1ccc(I)c(Sc2nc3c(N)ncnc3n2CCCNC(C)C)c1.O=P(O)(O)O [Compound 126, 8-(2-Iodo-5-methoxy-phenylsulfanyl)-9-(3-isopropylamino-propyl)-9H-purin-6-ylamine H3PO4 salt]
IC50 ([1]; MCF-7 cells, 16 h, SEM 6-11% of the mean, read-out: HER-2 IC50): 180 nM
IC50 [2]: 600 nM
degradation of HER-2, pHER-2, pRaf in tumor [3, 11]: little or no degradation
degrading Akt, pAkt, Raf-1, pMEK, cdk6, pRb in tumor [3, 11]: still effective
levels of HER-2 and pHER-2 in tumor ([3]; oral 2×200 mg/kg/day for three days): decreased only partially
degradation of Akt, pAkt, Raf-1, pRaf, cdk6, pRb in tumor ([3]; oral 2×200 mg/kg/day for three days, 24 h after last dosing): to levels comparable to those obtained with 17-AAG
tumor growth inhibition ([4]; N87): Tumor growth inhibition was observed
mortality and weight loss ([4]; mice): neither mortality nor weight loss was observed
IV Parameters T1/2 ([5]; IV 10 mg/kg, H3PO4 salts): 4.2 h
IV Parameters VSS ([5]; IV 10 mg/kg, H3PO4 salts): 22 L/kg
IV Parameters Cl ([5]; IV 10 mg/kg, H3PO4 salts in phosphatidylcholine/water dispersion): 62 mL/min/kg
PO Parameters T1/2 ([5]; PO 100 mg/kg, H3PO4 salts): 1.5 h
PO Parameters Tmax ([5]; PO 100 mg/kg, H3PO4 salts): 0.5 h
PO Parameters Cmax ([5]; PO 100 mg/kg, H3PO4 salts, plasma): 4700 ng/mL
PO Parameters AUC ([5]; PO 100 mg/kg, over 4 h, H3PO4 salts): 450 µg·min/mL

CC(=O)OCCCn1c(Sc2nc3cccc(Cl)c3s2)nc2c(N)ncnc21 [Compound 242]
IC50 ([1]; Homo sapiens, MCF7, read-out: HER-2): 90 nM
Serum (PH 7.4) ([6]; solubility in serum, PH 7.4): 9 µg/mL
Gastric (PH 2.0) ([6]; solubility in simulated gastric fluid, PH 2.0): 220 µg/mL
Intestinal (PH 6.5) ([6]; solubility in simulated intestinal fluid, PH 6.5): 16 µg/mL
plasma concentrations (in words) [7]: significantly lower than 264
AUC [8]: 1040 ng·h/mL

CCCCn1c(Cc2cc(OC)ccc2Cl)nc2c(N)ncnc21 [Compound 311, 9-Butyl-8-(2-chloro-5-methoxy-benzyl)-9H-purin-6-ylamine]
IC50 ([1]; Homo sapiens, MCF7, MCF-7 cells, 16 h, average of at least three observations, read-out: HER-2 IC50): 20000 nM
melting point: 138 to 139 °C

C#CCCCn1c(Cc2cc(OC)c(OC)c(OC)c2Cl)nc2c(N)nc(F)nc21 [PU24FCl]
IC50 [2]: 1200 nM
tumor growth ([9]; intraperitoneally 200 mg/kg): significantly repressed tumor growth
pharmacodynamic response in tumors ([9]; intraperitoneally 100-300 mg/kg, DMSO/EtOH/phosphate-buffered saline 1:1:1): down-regulation of HER-2 and Raf-1
aqueous solubility (in words) [10]: too insoluble to be effectively formulated and delivered orally
